{
  "source": "patent US10428028B2",
  "about": "“HDAC inhibitors” (BIOMARIN PHARMACEUTICAL INC., priority 2013, dated 2019)",
  "tested_on": "Frataxin (FXN) mRNA",
  "experiment": "Effect of HDAC inhibitors on frataxin (FXN) mRNA expression",
  "type": "cell-based, human (Friedreich's ataxia patient primary lymphocytes)",
  "conditions": "Friedreich's ataxia patient primary lymphocytes, 48 hours",
  "protocol": "Blood is collected from Friedreich's ataxia patient donors into tubes containing the anti-coagulant EDTA. Primary lymphocytes are isolated using Lymphocyte Separation Medium (MP Biomedicals, Solon, Ohio) following the manufacturer's instructions and including a few modifications made by Repligen. After a final wash in Phosphate Buffered Saline (PBS), the cells are distributed into a 6-well cell culture plate in cell growth medium. The test HDAC inhibitor compound is added to cells in a dose escalating manner (usually concentrations range from 1 to 10 μM) and 0.1% DMSO is added to one well of cells as a no treatment control. […] The RNA yield and concentration is determined using a Nanodrop spectrophotometer (Thermo Fisher Scientific, Waltham, Mass.) and depending on the RNA concentration, one of two protocols is used to measure frataxin (FXN) transcript levels. […] In both methods each RNA sample is analyzed in triplicate (preferably) or duplicate (minimally) using a one-step qRT-PCR master mix that contains all the components necessary for cDNA synthesis and PCR amplification in a single, continuous reaction. […] The amount of FXN (or GAPDH) in the sample is determined as the relative quantity to the calibrator where the calibrator sample is assigned an arbitrary quantity of 1. […] The relative quantity of FXN is normalized to cell number and RNA input. […]",
  "data": [
    {"smiles": "Nc1ccccc1NC(=O)c1ccc2c(cnn2Cc2ccc(F)c(F)c2)c1", "note": "[Compound A9]", "values": [
      {"measurement": "Fxn >2X (concentration required for a 2-fold increase in FXN mRNA)", "result": "A (A if less than 5 μM)"}
    ]},
    {"smiles": "Nc1cc(F)ccc1NC(=O)c1ccc2c(cnn2CC2CC2)c1", "note": "[Compound A12]", "values": [
      {"measurement": "Fxn >2X (concentration required for a 2-fold increase in FXN mRNA)", "result": "C (C if greater than 10 μM)"}
    ]}
  ]
}
